≈ marks a conversion by molar mass, not a printed value. Where two headings read alike, the source gives them in different places. Numbered stars: 1 amine (or outer) side, 2 acyl side, 3 side chain; on linkers, the order of the positions; unused ones are H or OH. Bridge positions count the residues as written; N and C are the ends. Side chains are listed from the residue outwards. Peptide text beside a SMILES is read from it. * marks the point of attachment. C20 diacid = O=C(O)CCCCCCCCCCCCCCCCCCC(=O)*; γGlu = O=C(O)[C@H](CCC(=O)[*:2])N[*:1]; AEEA = NCCOCCOCC(=O)O
Legend:
[1] = target: T1, human amylin 3(a) receptor (human calcitonin receptor + RAMP-3) in BHK570 cells (Homo sapiens, UniProt O60896+P30988); assay: ASSAY (II)a functional assay, human amylin receptor (CRE luciferase); format: cell-based; details: for EC50: human amylin receptor functional potency, assay (II), read-out: hAmylin-R funct. EC50
T1 construct: expressed in transfected cells
In short: (§1)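 Functional agonism was measured by CRE-luciferase reporter luminescence in BHK cells bearing calcitonin receptor, or calcitonin receptor plus RAMP-3 as the amylin 3(a) receptor. Stimulation lasted 3 hours at 37° C.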

[2] = target: T2, human calcitonin (a) receptor in BHK570 cells (Homo sapiens, UniProt P30988); assay: ASSAY (II)a functional assay, human calcitonin receptor (CRE luciferase); format: cell-based; details: read-out: hCTR funct. EC50
T2 construct: expressed in transfected cells
T2 sequence (P30988 25-474): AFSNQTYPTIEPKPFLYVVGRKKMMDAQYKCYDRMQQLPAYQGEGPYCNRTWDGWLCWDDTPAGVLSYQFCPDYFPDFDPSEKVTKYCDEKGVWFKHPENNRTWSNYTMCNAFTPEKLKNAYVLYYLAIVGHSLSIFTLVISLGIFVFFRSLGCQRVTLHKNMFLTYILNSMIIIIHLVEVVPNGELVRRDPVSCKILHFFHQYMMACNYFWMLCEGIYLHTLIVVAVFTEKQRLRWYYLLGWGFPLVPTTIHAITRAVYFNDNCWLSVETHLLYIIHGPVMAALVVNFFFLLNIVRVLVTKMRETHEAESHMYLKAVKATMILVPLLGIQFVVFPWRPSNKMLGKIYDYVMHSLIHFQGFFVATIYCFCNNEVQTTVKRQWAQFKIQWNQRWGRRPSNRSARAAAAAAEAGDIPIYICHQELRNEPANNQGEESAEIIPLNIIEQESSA
In short: as §1

[3] = ASSAY (IV) determination of solubility; format: physicochemical
In short: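 Samples of polypeptide, prepared from a water stock at […] and diluted 1:1 into 100 mM buffers spanning pH 3.0 to 8.0, stood 18 hours at room temperature. Polypeptide concentration was then determined by UPLC following centrifugation.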

[4] = target: T3, human amylin receptor (membranes from Amylin 3(a)/CRE-luc cells) (Homo sapiens, UniProt O60896+P30988); assay: ASSAY (V) binding to the human amylin receptor (SPA, 125I-rat amylin); details: for IC50: Table 4, read-out: hAmylin-R bind IC50;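 on all read-outs here: competition binding of cell membranes (35 ng/µL) mixed with SPA beads in 384-well plates at 40 µL total volume, read by scintillation counting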
T3 construct: expressed in transfected cells
T3 sequence (P30988 25-474): T2 sequence (P30988 25-474)
T3 sequence (O60896 24-148 partner): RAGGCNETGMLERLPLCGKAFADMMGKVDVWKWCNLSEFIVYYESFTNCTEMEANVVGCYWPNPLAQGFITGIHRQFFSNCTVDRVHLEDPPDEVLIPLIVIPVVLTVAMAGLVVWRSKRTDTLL

[5] = target: T4, human calcitonin receptor (Homo sapiens, UniProt P30988); assay: ASSAY (VII) binding to the human calcitonin receptor (SPA, 125I-Calcitonin); details: read-out: hCTR bind IC50;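 further: cell membranes (35 ng/µL) combined with SPA beads in 40 µL of pH 7.4 Hepes buffer, 384-well format, signal counted on a TopCounter instrument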
T4 construct: expressed in transfected cells
T4 sequence (P30988 25-474): T2 sequence (P30988 25-474)

[6] = hCTR funct. EC50 divided by hAmylin-R funct. EC50
[7] = hCTR funct. EC50 over hAmylin-R funct. EC50
[8] = human functional selectivity: hCTR funct. EC50 / hAmylin-R funct. EC50
[9] = bistrispropane buffer, pH 6.5, read-out: Solubility pH 6.5 Concentration
[10] = bistrispropane buffer, pH 7.5, read-out: Solubility pH 7.5 Concentration
[11] = bistrispropane buffer, pH 6.0, read-out: Solubility pH 6.0 Concentration
[12] = bistrispropane buffer, pH 7.0, read-out: Solubility pH 7.0 Concentration
[13] = bistrispropane buffer, pH 8.0, read-out: Solubility pH 8.0 Concentration
[14] = glycylglycine buffer, pH 3.0, read-out: Solubility pH 3.0 Concentration
[15] = glycylglycine buffer, pH 4.0, read-out: Solubility pH 4.0 Concentration
[16] = glycylglycine buffer, pH 5.0, read-out: Solubility pH 5.0 Concentration
[17] = Table 5, selectivity, hCTR bind IC50 / hAmylin-R bind IC50
[18] = Table 5a, selectivity, hCTR bind IC50 / hAmylin-R bind IC50
[19] = Table 5b, selectivity, hCTR bind IC50 / hAmylin-R bind IC50
[20] = Table 5c, selectivity, hCTR bind IC50 / hAmylin-R bind IC50
[21] = Table 7, human binding selectivity, included for comparison
[22] = Table 7a (preferred compounds), human binding selectivity, included for comparison
[23] = ratio of human calcitonin receptor binding IC50 to human amylin receptor binding IC50

SMILES	Ratio hCT/hAmylin funct. [1, 6]	EC50 [1] [nM]	Ratio hCT/hAmylin funct. [1, 8]	EC50 [2] [nM]	solubility at 18 h [3, 9] [µM]	solubility at 18 h [3, 10] [µM]	solubility at 18 h [3, 11] [µM]	solubility at 18 h [3, 12] [µM]	solubility at 18 h [3, 13] [µM]	solubility at 18 h [3, 14] [µM]	solubility at 18 h [3, 15] [µM]	solubility at 18 h [3, 16] [µM]	IC50 [4] [nM]	Ratio hCT/hAmylin binding [4, 17]	Ratio hCT/hAmylin binding [4, 18]	Ratio hCT/hAmylin binding [4, 19]	Ratio hCT/hAmylin binding [4, 20]	Ratio hCT/hAmylin binding [4, 21]	Ratio hCT/hAmylin binding [4, 22]	Ratio hCT/hAmylin binding [4, 23]	also measured
CC[C@H](C)[C@H](NC(=O)[C@H](C)NC(=O)CNC(=O)[C@H](Cc1ccccc1)NC(=O)[C@H](CC(N)=O)NC(=O)[C@@H]1CCCN1C(=O)[C@H](CO)NC(=O)[C@H](CO)NC(=O)[C@H](Cc1c[nH]cn1)NC(=O)[C@H](CCCNC(=N)N)NC(=O)[C@H](CC(C)C)NC(=O)[C@H](Cc1ccccc1)NC(=O)[C@H](CC(N)=O)NC(=O)[C@H](C)NC(=O)[C@H](CC(C)C)NC(=O)[C@H](CCCNC(=N)N)NC(=O)[C@H](CCC(N)=O)NC(=O)[C@@H](NC(=O)[C@H](C)NC(=O)[C@@H]1CSSC[C@H](NC(=O)[C@@H](N)CCCCNC(=O)COCCOCCNC(=O)CC[C@H](NC(=O)CCCCCCCCCCCCCCCCCCC(=O)O)C(=O)O)C(=O)N[C@@H](CC(N)=O)C(=O)N[C@@H]([C@@H](C)O)C(=O)N[C@@H](C)C(=O)N[C@@H]([C@@H](C)O)C(=O)N1)[C@@H](C)O)C(=O)N1CCC[C@H]1C(=O)N[C@@H](CO)C(=O)N[C@@H](CO)C(=O)N[C@H](C(=O)N[C@@H](CC(N)=O)C(=O)N[C@H](C(=O)NCC(=O)N1CCC[C@H]1C(=O)N[C@@H](CC(N)=O)C(=O)N[C@H](C(=O)N[C@@H](Cc1ccc(O)cc1)C(N)=O)[C@@H](C)O)C(C)C)[C@@H](C)O [Example 50]	17.4	0.038	17.4	0.662	≥ 200	≥ 200	≥ 200	≥ 200	≥ 200	≥ 200	≥ 200	≥ 200	0.038	36.0	36.0	36.0	36.0	36.0	36.0	36.0	Ratio hCT/hAmylin funct. [1, 7]: 17.4; IC50 [5]: 1.38 nM
CC[C@H](C)[C@H](NC(=O)[C@H](C)NC(=O)CNC(=O)[C@H](Cc1ccccc1)NC(=O)[C@H](CC(N)=O)NC(=O)[C@@H]1CCCN1C(=O)[C@H](CO)NC(=O)[C@H](CO)NC(=O)[C@H](Cc1c[nH]cn1)NC(=O)[C@H](CCCNC(=N)N)NC(=O)[C@H](CC(C)C)NC(=O)[C@H](Cc1ccccc1)NC(=O)[C@H](CC(N)=O)NC(=O)[C@H](C)NC(=O)[C@H](CC(C)C)NC(=O)[C@H](CCCNC(=N)N)NC(=O)[C@H](CCC(N)=O)NC(=O)[C@@H](NC(=O)[C@H](C)NC(=O)[C@@H]1CSSC[C@H](NC(=O)[C@@H](N)CCCCNC(=O)COCCOCCNC(=O)CC[C@H](NC(=O)CCCCCCCCCCCCCCCCCCC(=O)O)C(=O)O)C(=O)N[C@@H](CC(N)=O)C(=O)N[C@@H]([C@@H](C)O)C(=O)N[C@@H](C)C(=O)N[C@@H]([C@@H](C)O)C(=O)N1)[C@@H](C)O)C(=O)N1CCC[C@H]1C(=O)N[C@@H](CO)C(=O)N1CCC[C@H]1C(=O)N[C@H](C(=O)N1CCC[C@H]1C(=O)N[C@H](C(=O)NCC(=O)N[C@@H](CO)C(=O)N[C@@H](CC(N)=O)C(=O)N[C@H](C(=O)N[C@@H](Cc1ccc(O)cc1)C(N)=O)[C@@H](C)O)C(C)C)[C@@H](C)O [Example 54] (H-K([AEEA-γGlu-C20 diacid])CNTATCATQRLANFLRHSSPNFGAIPSPTPVGSNTY-NH2; disulfide 2-7; N-terminus assumed)	9.6	0.103	9.6	0.987	≥ 200	≥ 200	≥ 200	≥ 200	≥ 200	≥ 200	≥ 200	≥ 200	0.03	146.1	146.1	146.1	146.1	146.1	146.1	146.1	IC50 [5]: 4.38 nM
CC[C@H](C)[C@H](NC(=O)[C@H](C)NC(=O)CNC(=O)[C@H](Cc1ccccc1)NC(=O)[C@H](CC(N)=O)NC(=O)[C@@H]1CCCN1C(=O)[C@H](CO)NC(=O)[C@H](CO)NC(=O)[C@H](Cc1c[nH]cn1)NC(=O)[C@H](CCCNC(=N)N)NC(=O)[C@H](CC(C)C)NC(=O)[C@H](Cc1ccccc1)NC(=O)[C@H](CC(N)=O)NC(=O)[C@H](C)NC(=O)[C@H](CC(C)C)NC(=O)[C@H](CCCNC(=N)N)NC(=O)[C@H](CCC(N)=O)NC(=O)[C@@H](NC(=O)[C@H](C)NC(=O)[C@@H]1CSSC[C@H](NC(=O)[C@@H](N)CCCCNC(=O)COCCOCCNC(=O)CC[C@H](NC(=O)CCCCCCCCCCCCCCCCCCC(=O)O)C(=O)O)C(=O)N[C@@H](CC(N)=O)C(=O)N[C@@H]([C@@H](C)O)C(=O)N[C@@H](C)C(=O)N[C@@H]([C@@H](C)O)C(=O)N1)[C@@H](C)O)C(=O)N1CCC[C@H]1C(=O)N1CCC[C@H]1C(=O)N[C@@H](CO)C(=O)N[C@H](C(=O)N[C@@H](CC(N)=O)C(=O)N[C@H](C(=O)NCC(=O)N1CCC[C@H]1C(=O)N[C@@H](CC(N)=O)C(=O)N[C@H](C(=O)N[C@@H](Cc1ccc(O)cc1)C(N)=O)[C@@H](C)O)C(C)C)[C@@H](C)O [Example 55] (H-K([AEEA-γGlu-C20 diacid])CNTATCATQRLANFLRHSSPNFGAIPPSTNVGPNTY-NH2; disulfide 2-7; N-terminus assumed)	10.8	0.068	10.8	0.731	≥ 200	≥ 200	≥ 200	≥ 200	119 (≈ 541 µg/mL)	≥ 200	≥ 200	≥ 200	0.042	51.8	51.8	51.8	51.8	51.8	51.8	51.8	Ratio hCT/hAmylin funct. [1, 7]: 10.8; IC50 [5]: 2.18 nM
